We go through four molecules from ChEMBL document CHEMBL1201862, “PubChem BioAssay data set” (2004).

The subject of test [1] is Streptococcus sp. 'group A'. The test can be described thus: growth inhibition of control SK(-) GAS strain, dose response, counter-screen for streptokinase expression inhibitor project, luminescence, kanamycin, BacTiterGlo, confirmation (AID 1900). Type of test: functional, organism-based. For orientation: The purpose of a counterscreen is to sort out artefacts and off-target activity.

Another test concerns BJ. The test can be described thus: cytotoxicity toward BJ-TERT fibroblasts, dose response, cell-based, RAS-independent, luminescence (AID 1933). Type of test: functional. The settings on record: Homo sapiens.
The nature of test [2]: HepG2 cell cytotoxicity, dose response, cytotoxicity control for non-replicating M. tuberculosis project (AID 489018). Type of test: functional. The settings on record: Mycobacterium tuberculosis.
Another test can be described thus: cells. Type of test: functional.
The target in test [3] is T1, Calpain-2 catalytic subunit (Sus scrofa, UniProt P43367).
T1 sequence (P43367 whole entry): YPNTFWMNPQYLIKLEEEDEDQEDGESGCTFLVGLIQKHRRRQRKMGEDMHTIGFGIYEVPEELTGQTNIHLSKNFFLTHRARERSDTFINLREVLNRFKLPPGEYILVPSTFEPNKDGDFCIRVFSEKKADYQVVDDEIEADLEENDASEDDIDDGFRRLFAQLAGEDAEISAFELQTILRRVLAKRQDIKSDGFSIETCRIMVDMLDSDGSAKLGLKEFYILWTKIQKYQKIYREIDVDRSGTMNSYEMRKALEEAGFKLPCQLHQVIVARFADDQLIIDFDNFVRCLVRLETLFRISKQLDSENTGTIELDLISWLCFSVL
The test can be described thus: pig calpain II inhibitor potency, dose response, biochemical, fluorogenic peptide substrate (AID 1420). Type of test: functional.

Test [4] concerns the target T2, Replicative DNA helicase DnaB (Mycobacterium tuberculosis, UniProt P9WMR3).
T2 sequence (P9WMR3 whole entry): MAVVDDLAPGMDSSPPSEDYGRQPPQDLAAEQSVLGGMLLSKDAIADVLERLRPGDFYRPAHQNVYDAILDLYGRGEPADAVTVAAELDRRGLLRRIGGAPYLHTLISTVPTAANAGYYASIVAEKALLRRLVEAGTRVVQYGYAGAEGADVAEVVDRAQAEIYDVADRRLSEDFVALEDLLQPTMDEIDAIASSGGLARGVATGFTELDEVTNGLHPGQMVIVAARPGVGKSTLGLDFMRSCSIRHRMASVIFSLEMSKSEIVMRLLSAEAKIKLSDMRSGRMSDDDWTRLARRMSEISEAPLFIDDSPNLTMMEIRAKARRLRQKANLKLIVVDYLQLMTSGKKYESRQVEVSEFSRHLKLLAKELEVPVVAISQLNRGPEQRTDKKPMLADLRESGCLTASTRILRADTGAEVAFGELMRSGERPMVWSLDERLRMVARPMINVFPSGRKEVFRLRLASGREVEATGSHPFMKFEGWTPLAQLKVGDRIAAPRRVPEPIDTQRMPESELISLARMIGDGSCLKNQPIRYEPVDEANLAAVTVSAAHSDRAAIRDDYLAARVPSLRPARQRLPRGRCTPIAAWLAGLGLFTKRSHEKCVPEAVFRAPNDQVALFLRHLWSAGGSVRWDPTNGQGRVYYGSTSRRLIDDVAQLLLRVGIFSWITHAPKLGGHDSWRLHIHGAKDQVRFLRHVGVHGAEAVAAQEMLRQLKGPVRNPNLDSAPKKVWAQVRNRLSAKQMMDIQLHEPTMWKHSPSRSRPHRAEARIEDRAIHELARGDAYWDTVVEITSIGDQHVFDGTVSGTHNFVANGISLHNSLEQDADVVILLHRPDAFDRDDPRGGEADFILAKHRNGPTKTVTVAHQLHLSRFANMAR
The test can be described thus: DnaB intein splicing inhibitors, dose response, biochemical, cell-free fluorescence (AID 449749). Type of test: functional.

Another test deals with T3, Protein RecA (Mycobacterium tuberculosis, UniProt P9WHJ3).
T3 sequence (P9WHJ3 whole entry): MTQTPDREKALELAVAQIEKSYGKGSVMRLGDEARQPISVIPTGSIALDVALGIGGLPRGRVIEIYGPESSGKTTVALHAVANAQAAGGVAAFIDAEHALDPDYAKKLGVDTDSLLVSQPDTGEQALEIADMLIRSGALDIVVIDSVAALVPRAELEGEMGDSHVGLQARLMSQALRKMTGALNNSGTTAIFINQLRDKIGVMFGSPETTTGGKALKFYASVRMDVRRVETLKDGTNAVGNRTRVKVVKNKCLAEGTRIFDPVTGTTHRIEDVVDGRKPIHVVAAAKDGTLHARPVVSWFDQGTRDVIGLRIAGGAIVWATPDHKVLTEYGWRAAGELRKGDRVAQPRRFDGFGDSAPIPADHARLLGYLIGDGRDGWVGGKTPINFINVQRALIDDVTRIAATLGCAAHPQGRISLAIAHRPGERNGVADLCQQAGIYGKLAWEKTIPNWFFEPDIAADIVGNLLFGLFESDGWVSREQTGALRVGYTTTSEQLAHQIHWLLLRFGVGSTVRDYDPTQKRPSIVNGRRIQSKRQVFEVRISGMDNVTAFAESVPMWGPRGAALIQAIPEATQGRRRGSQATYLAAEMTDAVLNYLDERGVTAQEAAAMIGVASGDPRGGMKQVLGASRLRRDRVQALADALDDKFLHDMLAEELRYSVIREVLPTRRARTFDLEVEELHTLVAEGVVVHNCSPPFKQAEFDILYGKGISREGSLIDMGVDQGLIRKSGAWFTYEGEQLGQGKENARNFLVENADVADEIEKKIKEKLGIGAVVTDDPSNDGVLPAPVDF
The test can be described thus: Fluorescence Cell-Free Homogeneous Dose Retest to Identify Inhibitors of RecA-Intein Splicing Activity. [Related pubchem assays (depositor defined):AID2097, AID2223, AID489010, AID492950]. Type of test: functional.

Test [5] is described as follows: inhibitors of SNCA 5'UTR-driven reporter translation, confirmation, H4 neuroglioma cells, luminescence (AID 1988). Type of test: functional, cell-based.
For test [6], the target named is T4, Sphingosine 1-phosphate receptor 4 (Homo sapiens, UniProt O95977).
T4 sequence (O95977 whole entry): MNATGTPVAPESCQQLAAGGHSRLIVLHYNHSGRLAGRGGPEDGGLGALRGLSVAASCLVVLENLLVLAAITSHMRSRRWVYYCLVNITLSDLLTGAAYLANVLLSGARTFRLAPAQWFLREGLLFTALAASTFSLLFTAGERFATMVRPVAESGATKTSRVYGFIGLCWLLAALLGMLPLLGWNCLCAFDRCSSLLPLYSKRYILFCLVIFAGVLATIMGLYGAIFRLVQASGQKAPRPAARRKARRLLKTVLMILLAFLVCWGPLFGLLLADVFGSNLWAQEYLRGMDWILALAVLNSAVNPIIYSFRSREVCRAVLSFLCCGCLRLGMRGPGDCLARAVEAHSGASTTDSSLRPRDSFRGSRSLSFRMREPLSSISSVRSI
The test can be described thus: Fluorescence dose response cell-based high throughput screening assay for antagonists of the Sphingosine 1-Phosphate Receptor 4 (S1P4). [Related pubchem assays: 1524 (Confirmation in triplicates.), 1510 (Primary screen.)]. Type of test: functional.

For test [7], the target named is Serine/threonine-protein phosphatase (Candida dubliniensis (strain CD36 / CBS 7987 / NCPF 3949 / NRRLY-17841) (Yeast), UniProt B9W6M3). The test can be described thus: calcineurin pathway inhibitors in yeast reporter, dose response, S. cerevisiae, CDRE-lacZ, luminescence, secondary (AID 2388).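 Also: yeast reporter cells carrying a calcineurin-responsive lacZ construct stimulated with calcium chloride; luminescent beta-galactosidase reporter signal in whole cells rather than isolated phosphatase activity; potency for inhibition where a drop in reporter signal means calcineurin blockade.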 Type of test: functional, cell-based.
Test [8] is described as follows: cytotoxicity in HEK-293T cells, dose response, cytotoxicity control for TCR NF-kB inhibitor project, luminescence, T-cell screen hits (AID 489026).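 Also: cells exposed to compound about 14 hours before the viability readout.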 Type of test: functional, cell-based.

What is called EC50 is the midpoint of the concentration-response curve. As a reminder, the CC50 is the concentration at which the toxic effect on the cells reaches its halfway point. In general, IC50 refers to the concentration needed to halve the response being measured. The AC50 is the concentration giving half of the maximal activity seen.

Calls of active or inactive are those of the source.

Sequence of Serine/threonine-protein phosphatase (B9W6M3 whole entry): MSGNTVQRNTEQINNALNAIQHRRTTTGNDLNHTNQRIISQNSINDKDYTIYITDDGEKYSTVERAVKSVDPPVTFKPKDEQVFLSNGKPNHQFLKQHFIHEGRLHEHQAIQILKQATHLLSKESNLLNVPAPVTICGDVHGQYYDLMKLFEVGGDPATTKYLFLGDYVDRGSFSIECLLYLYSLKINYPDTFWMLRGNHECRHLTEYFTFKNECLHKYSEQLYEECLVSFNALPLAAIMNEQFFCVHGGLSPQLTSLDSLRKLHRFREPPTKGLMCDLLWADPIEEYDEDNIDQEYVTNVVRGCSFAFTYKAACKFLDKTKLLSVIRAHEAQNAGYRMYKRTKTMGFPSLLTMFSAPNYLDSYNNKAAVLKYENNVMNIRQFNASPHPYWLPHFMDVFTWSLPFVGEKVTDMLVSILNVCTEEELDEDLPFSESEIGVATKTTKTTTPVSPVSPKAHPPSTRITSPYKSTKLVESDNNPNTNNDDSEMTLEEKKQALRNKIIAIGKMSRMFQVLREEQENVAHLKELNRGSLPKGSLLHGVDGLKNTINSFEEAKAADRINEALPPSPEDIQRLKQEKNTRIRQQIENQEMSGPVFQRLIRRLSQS

On to `O=C(Cc1ccc([N+](=O)[O-])cc1)N/N=C/c1ccc([N+](=O)[O-])o1`, for which the EC50 in test [1] is 11.9 µM (active); with BJ it was > 150 µM (not active). The CC50 in test [2] was 7.53 µM (active). Also, in “cells”, the IC50 is 13.2 µM (active).
Take `SC1=Nc2ccccc2C1`: the IC50 in [3] is given as 14.9 µM (not active). Also, the AC50 in test [4] was 1.77 µM (active). Besides, the EC50 on Protein RecA is 1.66 µM (active).
For the molecule `Cn1nc(-c2ccc(Cl)cc2)nc2c(=O)n(C)c(=O)nc1-2`, the EC50 was 4.07 µM (active) in test [5] and 0.0305 µM (active) on Protein RecA. Moreover, the IC50 is 24.7 µM (not active) in test [3] and 0.396 µM (active) in [6]. Besides, in test [4], the AC50 is 0.0409 µM (active).
Regarding `COc1ccc(C(NC(=O)C(C)C)c2ccc3cccnc3c2O)cc1` (stereo not given), the values for the EC50 in [1] and in test [7] were 7.99 µM (active) and > 180 µM (inactive), respectively. Further, in test [8], the IC50 is > 80 µM (inactive).
